The results in this text go back to patent US10570121B2, “Substituted dihydroisoquinolinone compounds” (priority 2014, dated 2020).

Where two headings read alike, the source gives them in different places.

In assay [1] the target is EZH2 Mutant Y641N (Homo sapiens (Human), UniProt Q15910, Y641N). As to the kind of experiment: EZH2 Mutant Y641N nucleosome assay. As to conditions: PRC2 4-protein complex 6 nM, 1.5 μM SAM, HeLa oligonucleosomes. It is filed as biochemical. The protocol: (§1) The genes for EZH2, EED, SUZ12, and RBBP4 proteins were cloned into pBacPAK9 vectors (Clontech). RBBP4 was FLAG tagged on the N-terminal end. The baculovirus expressions of these proteins were used to co-infect SF9 insect cells. Insect cell pellets were lysed in a buffer containing 25 mM Tris pH8.0, 300 mM NaCl, 0.5 mM TCEP, complete EDTA-free protease inhibitor (Roche), 0.1% NP-40. The supernatant from the lysate was incubated with FLAG® M2 antibody resin (Sigma). The resin was washed on the chromatography column and eluted with 0.2 mg/ml FLAG peptide. The elute was incubated with omnicleave nucleases (Epicentre Technologies) at 4° C. overnight, then concentrated and loaded onto a Superdex 200 (GE Healthcare) column. The Superdex 200 column was eluted with 25 mM Tris pH8.0, 150 mM NaCl, 0.5 mM TCEP. Fractions containing the PRC2 complex were pooled.
Sequence of EZH2 Mutant Y641N (Q15910 whole entry Y641N, looked up): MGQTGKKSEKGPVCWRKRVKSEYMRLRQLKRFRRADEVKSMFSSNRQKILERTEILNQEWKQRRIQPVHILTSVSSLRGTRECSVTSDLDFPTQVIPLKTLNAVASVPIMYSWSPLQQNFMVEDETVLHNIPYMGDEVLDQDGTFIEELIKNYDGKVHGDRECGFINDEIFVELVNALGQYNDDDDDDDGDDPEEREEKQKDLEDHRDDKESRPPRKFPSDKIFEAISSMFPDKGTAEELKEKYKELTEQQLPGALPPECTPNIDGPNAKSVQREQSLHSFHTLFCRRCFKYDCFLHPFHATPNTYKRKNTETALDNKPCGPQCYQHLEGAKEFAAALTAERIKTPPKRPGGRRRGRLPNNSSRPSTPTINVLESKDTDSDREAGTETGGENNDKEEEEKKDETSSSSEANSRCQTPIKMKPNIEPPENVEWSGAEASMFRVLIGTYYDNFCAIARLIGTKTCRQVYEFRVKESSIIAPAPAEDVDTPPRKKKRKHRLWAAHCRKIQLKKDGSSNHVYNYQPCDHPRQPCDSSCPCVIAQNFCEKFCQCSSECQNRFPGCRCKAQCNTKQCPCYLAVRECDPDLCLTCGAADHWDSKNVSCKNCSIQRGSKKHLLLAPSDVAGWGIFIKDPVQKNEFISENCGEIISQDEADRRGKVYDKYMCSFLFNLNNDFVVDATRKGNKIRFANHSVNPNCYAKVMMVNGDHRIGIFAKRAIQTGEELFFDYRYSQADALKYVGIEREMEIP
Sequence of EZH2 Mutant Y641N (O75530 whole entry partner, looked up): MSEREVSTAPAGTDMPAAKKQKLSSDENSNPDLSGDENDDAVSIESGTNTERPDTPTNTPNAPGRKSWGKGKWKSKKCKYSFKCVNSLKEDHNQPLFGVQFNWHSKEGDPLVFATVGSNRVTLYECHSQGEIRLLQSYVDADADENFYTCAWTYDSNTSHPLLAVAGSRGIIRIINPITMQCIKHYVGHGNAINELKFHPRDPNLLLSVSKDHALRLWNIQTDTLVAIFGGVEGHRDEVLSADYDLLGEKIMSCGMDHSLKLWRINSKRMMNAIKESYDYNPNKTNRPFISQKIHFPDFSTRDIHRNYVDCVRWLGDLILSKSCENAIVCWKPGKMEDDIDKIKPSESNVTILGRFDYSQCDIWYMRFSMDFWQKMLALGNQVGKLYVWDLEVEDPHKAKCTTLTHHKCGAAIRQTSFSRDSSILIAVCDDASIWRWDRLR
Sequence of EZH2 Mutant Y641N (Q15022 whole entry partner, looked up): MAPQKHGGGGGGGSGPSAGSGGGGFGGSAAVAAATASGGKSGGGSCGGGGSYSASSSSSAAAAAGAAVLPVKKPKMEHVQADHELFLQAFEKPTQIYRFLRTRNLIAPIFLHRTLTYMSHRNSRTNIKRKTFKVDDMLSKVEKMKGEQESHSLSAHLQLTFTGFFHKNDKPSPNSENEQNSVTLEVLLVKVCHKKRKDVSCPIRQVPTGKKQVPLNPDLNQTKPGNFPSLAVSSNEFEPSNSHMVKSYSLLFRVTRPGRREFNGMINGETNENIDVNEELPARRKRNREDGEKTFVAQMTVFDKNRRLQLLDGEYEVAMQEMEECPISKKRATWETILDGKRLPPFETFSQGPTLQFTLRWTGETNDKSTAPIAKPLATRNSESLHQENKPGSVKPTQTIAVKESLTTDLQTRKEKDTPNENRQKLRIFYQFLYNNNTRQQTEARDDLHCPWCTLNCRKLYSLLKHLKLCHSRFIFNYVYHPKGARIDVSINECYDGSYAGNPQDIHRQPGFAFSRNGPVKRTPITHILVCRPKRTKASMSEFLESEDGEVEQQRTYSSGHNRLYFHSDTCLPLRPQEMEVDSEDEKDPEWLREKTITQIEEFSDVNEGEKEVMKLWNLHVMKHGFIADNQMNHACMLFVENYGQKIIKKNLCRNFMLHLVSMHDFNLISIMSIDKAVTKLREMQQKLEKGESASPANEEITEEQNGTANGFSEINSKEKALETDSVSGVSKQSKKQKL
Sequence of EZH2 Mutant Y641N (Q09028 whole entry partner, looked up): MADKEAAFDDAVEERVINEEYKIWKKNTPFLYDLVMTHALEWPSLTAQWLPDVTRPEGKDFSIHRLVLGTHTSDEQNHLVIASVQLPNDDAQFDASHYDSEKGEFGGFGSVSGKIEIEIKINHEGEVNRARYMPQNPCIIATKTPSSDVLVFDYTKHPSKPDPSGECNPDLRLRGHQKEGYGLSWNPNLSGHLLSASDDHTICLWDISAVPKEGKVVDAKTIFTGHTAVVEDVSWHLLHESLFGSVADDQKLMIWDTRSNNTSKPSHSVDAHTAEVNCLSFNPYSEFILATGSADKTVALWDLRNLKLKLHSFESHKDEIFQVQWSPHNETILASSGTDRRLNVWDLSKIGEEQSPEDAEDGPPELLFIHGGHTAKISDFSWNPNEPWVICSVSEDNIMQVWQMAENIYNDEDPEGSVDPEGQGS
(§2) A. Compound preparation • 1.
(§3) B. Reagent preparation • 1. […] Dilute TCA to 20% in DI water
(§4) C. Enzyme reaction • 1. […] Some compounds were tested under high SAM conditions.
(§5) D. Data analysis • 1. IC50 values were determined by fitting the data to a 4-parameter IC50 equation using proprietary curve fitting software. • 2. For compounds tested under high SAM conditions, Ki^app values were obtained by fitting the dose response curve to a model for competitive inhibition using proprietary curve fitting software. Preparation of HeLa Oligonucleosomes: Reagents • Cell Pellet: 15 L HeLa S3 (Accelgen)+6 L HeLa S3 (in house) • Mnase (Worthington Biochemicals) Equipment • SW-28 Rotor • Dounce Homogenizer/B Pestle Buffers • Lysis: 20 mM Hepes pH 7.5, 0.25M Sucrose, 3 mM MgCl2, 0.5% Nonidet P-40, 0.5 mM TCEP, 1 Roche Protease Tablet • B: 20 mM Hepes pH7.5, 3 mM MgCl2, 0.5 mM EDTA, 0.5 mM TCEP, 1 Roche Protease Tablet • MSB: 20 mM Hepes pH7.5, 0.4 M NaCl, 1 mM EDTA, 5% v/v Glycerol, 0.5 mM TCEP, 0.2 mM PMSF • LSB: 20 mM Hepes pH7.5, 0.1M NaCl, 1 mM EDTA, 0.5 mM TCEP, 0.2 mM PMSF • NG: 20 mM Hepes pH7.5, 1 mM EDTA, 0.4 m NaCl, 0.2 mM PMSF, 0.5 mM TCEP • Storage: 20 mM Hepes pH7.5, 1 mM EDTA, 10% Glycerol, 0.2 mM PMSF, 0.5 mM TCEP Protocol

For assay [2], the target named is WT EZH2 (Homo sapiens (Human), UniProt Q15910). As to the kind of experiment: WT EZH2 nucleosome assay (10X SAM, high SAM conditions). It is filed as biochemical. As to conditions: 15 uM SAM, Ki app from competitive inhibition fit. The protocol: as §1, §2, §3, §4, §5
Sequence of WT EZH2 (Q15910 whole entry, looked up): as the sequence (Q15910 whole entry Y641N, looked up) above, with N641Y counted along it
Sequence of WT EZH2 (O75530 whole entry partner, looked up): as the sequence (O75530 whole entry partner, looked up) above
Sequence of WT EZH2 (Q15022 whole entry partner, looked up): as the sequence (Q15022 whole entry partner, looked up) above
Sequence of WT EZH2 (Q09028 whole entry partner, looked up): as the sequence (Q09028 whole entry partner, looked up) above
Setting [3] is: read-out: EZH2 Mutant Y641N Nucleosome assay IC50.
Where [4] appears, read: read-out: WT EZH2 Nucleosome assay (10X SAM) Ki.
The mark [5] stands for this setting: EZH2 Mutant Y641N Nucleosome assay IC50 (μM).
[6] abbreviates: WT EZH2 Nucleosome assay (10X SAM) Ki (μM).

Broadly, the IC50 is the concentration needed to halve the response being measured. As for `Cc1cc(C)c(CN2CCc3ccc([C@H](CO)[C@@H]4CCOC4)c(Cl)c3C2=O)c(=O)[nH]1` (racemic) [Example 65], in assay [1] (setting [3]), the IC50 is 0.047 µM. Further, in assay [2] (setting [4]), the Ki came to 0.006 µM. Turning to `COC(c1cc(Cl)c2c(c1Cl)C(=O)N(Cc1c(C)cc(C)[nH]c1=O)CC2)C1CCOCC1` (single isomer, unassigned) [Example 50], the IC50 in assay [1] (setting [3]) came out at 0.129 µM. Also, the Ki in assay [2] (setting [4]) amounted to 0.077 µM. For `COC(c1cc(Cl)c2c(c1Cl)C(=O)N(Cc1c(C)cc(C)[nH]c1=O)CC2)[C@H](C)CO` (single isomer, unassigned) [Example 141], in assay [1] (setting [3]), the IC50 was 0.016 µM. For the same compound, the Ki in assay [2] (setting [4]) was 0.002 µM.

For `COc1cc(C)[nH]c(=O)c1CN1CCc2c(Cl)cc(C(OC)C3CCOC3)c(Cl)c2C1=O` (single isomer, unassigned) [Example 125], in assay [1] (setting [5]), 0.008 µM corresponded to half-maximal inhibition (IC50). In assay [2] (setting [6]), this compound came in with a Ki of 0.0009 µM.

Turning to `Cc1cc(C)c(CN2CCc3c(C)cc(C(C)C4COC4)c(Cl)c3C2=O)c(=O)[nH]1` (single isomer, unassigned) [Example 195], in assay [1] (setting [3]), the IC50 amounted to 0.216 µM. Moreover, in assay [2] (setting [4]), the Ki came out at 0.046 µM.

Regarding `COC(c1cc(Cl)c2c(c1Cl)C(=O)N(Cc1c(C)cc(C)[nH]c1=O)CC2)C1CN(C(=O)CO)C1` (single isomer, unassigned) [Example 128], the IC50 in assay [1] (setting [3]) amounted to 1.17 µM. Besides, in assay [2] (setting [4]), the Ki is 0.184 µM. The matching figures for `COC(c1cc(Cl)c2c(c1Cl)C(=O)N(Cc1c(C)cc(C)[nH]c1=O)CC2)C1CCN(C(=O)CO)C1` (stereo not drawn) [Example 113]: 0.005 µM and 0.0008 µM. The corresponding values for `COC(C(C)=O)c1cc(Cl)c2c(c1Cl)C(=O)N(Cc1c(C)cc(C)[nH]c1=O)CC2` (racemic) [Example 49] are 0.996 µM and 0.215 µM. Take `Cc1cc(C)c(CN2CCc3c(Cl)cc([C@H](CO)[C@H]4CCCO4)c(Cl)c3C2=O)c(=O)[nH]1` [Example 13, 5,8-dichloro-2-[(4,6-dimethyl-2-oxo-1,2-dihydropyridin-3-yl)methyl]-7-{(1R)-2-hydroxy-1-[(2R)-tetrahydrofuran-2-yl]ethyl}-3,4-dihydroisoquinolin-1(2H)-one]: the IC50 in assay [1] (setting [3]) came out at 0.018 µM. In addition, the Ki in assay [2] (setting [4]) came to 0.003 µM. As for `Cc1cc(C)c(CN2CCc3c(Cl)cc(C(CO)N4CCC(F)(F)C4)c(Cl)c3C2=O)c(=O)[nH]1` (single isomer, unassigned) [Example 67], the IC50 in assay [1] (setting [3]) is 19.5 µM. In addition, in assay [2] (setting [4]), the Ki is 1.6 µM. Regarding `COC(c1cc(Cl)c2c(c1Cl)C(=O)N(Cc1c(C)cc(C)[nH]c1=O)CC2)C1(O)CCOCC1` (single isomer, unassigned) [Example 53], the 50% inhibitory concentration (IC50) in assay [1] (setting [3]) was 0.017 µM. Besides, in assay [2] (setting [4]), the Ki is 0.001 µM. The matching figures for `Cc1cc(C)c(CN2CCc3c(Cl)cc(C(CO)N4CCCC4)c(Cl)c3C2=O)c(=O)[nH]1` (racemic) [Example 57]: 1.35 µM and 0.406 µM. Regarding `Cc1cc(C)c(CN2CCc3c(Cl)cc(C(CO)N4CC[C@@H](F)C4)c(Cl)c3C2=O)c(=O)[nH]1` (single isomer, unassigned) [Example 6], in assay [1] (setting [3]), the IC50 worked out at 0.136 µM. Further, the Ki in assay [2] (setting [4]) amounted to 0.019 µM. As to `Cc1cc(C)c(CN2CCc3c(Cl)cc(C(C)C4CN(C(=O)CO)C4)c(Cl)c3C2=O)c(=O)[nH]1` (single isomer, unassigned) [Example 183], in assay [1] (setting [3]), the half-maximal inhibitory concentration (IC50) worked out at 0.517 µM. Further, the Ki in assay [2] (setting [4]) was found to be 0.056 µM.

`COC(c1cc(Cl)c2c(c1Cl)C(=O)N(Cc1c(C)cc(C)[nH]c1=O)CC2)C1CCN(C=O)CC1` (single isomer, unassigned) [Example 72]: the IC50 in assay [1] (setting [3]) is 0.128 µM. Moreover, the Ki in assay [2] (setting [4]) is 0.041 µM. With `Cc1cc(C)c(CN2CCc3c(Cl)cc(C(C)C4CN(S(C)(=O)=O)C4)c(Cl)c3C2=O)c(=O)[nH]1` (single isomer, unassigned) [Example 185], in assay [1] (setting [3]), the IC50 was found to be 0.012 µM. For the same compound, the Ki in assay [2] (setting [4]) turned out to be 0.001 µM. The corresponding values for `COc1cc(C)[nH]c(=O)c1CN1CCc2c(C)cc([C@H](OC)[C@H]3CCOC3)c(Cl)c2C1=O` (single isomer, unassigned) [Example 84, 8-chloro-2-[(4-methoxy-6-methyl-2-oxo-1,2-dihydropyridin-3-yl)methyl]-7-{(R*)-methoxy[(3S*)-tetrahydrofuran-3-yl]methyl}-5-methyl-3,4-dihydroisoquinolin-1(2H)-one] are 0.002 µM and 0.0002 µM.

Regarding `COC(c1cc(Cl)c2c(c1Cl)C(=O)N(Cc1c(C)cc(C)[nH]c1=O)CC2)C1CCN(C2COC2)CC1` (single isomer, unassigned) [Example 156], the IC50 in assay [1] (setting [5]) worked out at 1.71 µM. The compound further came in with a Ki in assay [2] (setting [6]) of 0.375 µM. On to `COc1cc(C)[nH]c(=O)c1CN1CCc2c(Cl)cc(C(OC)C3CCN(C(C)=O)CC3)c(Cl)c2C1=O` (single isomer, unassigned) [Example 122], for which, in assay [1] (setting [3]), the concentration for half-maximal inhibition (IC50) stood at 0.236 µM. Moreover, the Ki in assay [2] (setting [4]) turned out to be 0.073 µM.

Take `COC(c1cc(C)c2c(c1Cl)C(=O)N(Cc1c(C)cc(C)[nH]c1=O)CC2)C1CN(C2COC2)C1` (single isomer, unassigned) [Example 181]: the IC50 in assay [1] (setting [3]) came to 0.041 µM. Besides, in assay [2] (setting [4]), the Ki worked out at 0.001 µM. For `COC(c1cc(Cl)c2c(c1Cl)C(=O)N(Cc1c(C)cc(C)[nH]c1=O)CC2)C1CC[S+]([O-])CC1` (single isomer, unassigned) [Example 114], the IC50 in assay [1] (setting [3]) amounted to 0.152 µM. In addition, in assay [2] (setting [4]), the Ki is 0.016 µM. As to `COc1cc(C)[nH]c(=O)c1CN1CCc2c(Cl)cc(C(OC)C3CCOC3)c(Cl)c2C1=O` (single isomer, unassigned) [Example 126], in assay [1] (setting [5]), the IC50 is 0.165 µM. Further, the Ki in assay [2] (setting [6]) worked out at 0.056 µM. Turning to `Cc1cc(C)c(CN2CCc3c(Cl)cc(C(C)C4CN(S(C)(=O)=O)C4)c(Cl)c3C2=O)c(=O)[nH]1` (single isomer, unassigned) [Example 186], the IC50 in assay [1] (setting [3]) amounted to 0.24 µM. The Ki in assay [2] (setting [4]) was determined as 0.014 µM. With `COc1cc(C)[nH]c(=O)c1CN1CCc2c(C)cc(C(C)=C3CN(S(C)(=O)=O)C3)c(Cl)c2C1=O` [Example 78], the half-maximal inhibitory concentration (IC50) in assay [1] (setting [3]) stood at 0.04 µM. In assay [2] (setting [4]), the Ki worked out at 0.004 µM.

Take `COc1cc(C)[nH]c(=O)c1CN1CCc2c(Cl)cc(C(OC)C3CCN(C(C)=O)CC3)c(Cl)c2C1=O` (single isomer, unassigned) [Example 123]: the IC50 in assay [1] (setting [3]) was 0.005 µM. For the same compound, in assay [2] (setting [4]), the Ki was found to be 0.0002 µM. The corresponding values for `COC(c1ccc2c(c1Cl)C(=O)N(Cc1c(C)cc(C)[nH]c1=O)CC2)C1CCOC1` (single isomer, unassigned) [Example 135] are 0.014 µM and 0.002 µM. The matching figures for `COC(c1cc(Cl)c2c(c1Cl)C(=O)N(Cc1c(C)cc(C)[nH]c1=O)CC2)[C@@H](C)CO` (single isomer, unassigned) [Example 143]: 1.77 µM and 0.276 µM. As for `[2H]C([2H])([2H])OC(c1cc(Cl)c2c(c1Cl)C(=O)N(Cc1c(C)cc(C)[nH]c1=O)CC2)C1CCN(C(=O)CO)CC1` (racemic) [Example 70], the IC50 in assay [1] (setting [5]) came to 0.006 µM. On to `COC(c1cc(Cl)c2c(c1Cl)C(=O)N(Cc1c(C)cc(C)[nH]c1=O)CC2)C1CCOCC1` (single isomer, unassigned) [Example 51], for which, in assay [1] (setting [3]), the IC50 stood at 0.002 µM. Same read-out and setting: then `COC(c1cc(Cl)c2c(c1Cl)C(=O)N(Cc1c(C)cc(C)[nH]c1=O)CC2)C1CCN(C=O)CC1` (single isomer, unassigned) [Example 73], with 0.002 µM; and `Cc1cc(C)c(CN2CCc3c(Cl)cc([C@@H](CO)[C@@H]4CCOC4)c(Cl)c3C2=O)c(=O)[nH]1` [Example 4, 5,8-dichloro-2-[(4,6-dimethyl-2-oxo-1,2-dihydropyridin-3-yl)methyl]-7-{(1S)-2-hydroxy-1-[(3S)-tetrahydrofuran-3-yl]ethyl}-3,4-dihydroisoquinolin-1(2H)-one], with 1.95 µM. On the same count and under the same terms, as for `COC(c1cc(Cl)c2c(c1Cl)C(=O)N(Cc1c(C)cc(C)[nH]c1=O)CC2)C1CCN(C(=O)CC#N)CC1` (single isomer, unassigned) [Example 71], the figure is 0.003 µM.

Regarding `Cc1cc(OC(F)F)c(CN2CCc3c(Cl)cc(C(CO)C4CCOCC4)c(Cl)c3C2=O)c(=O)[nH]1` (single isomer, unassigned) [Example 56], in assay [1] (setting [3]), the IC50 was determined as 0.004 µM.
